Reference: US11123295B2, “Encholeated antifungal compounds for central nervous system delivery and treatment of Cryptococcus infections” (priority 2016, dated 2021)
Values joined by “and” are separate entries in the source; they are usually repeats but may differ in a detail not shown here. Identical values can stand only once.

Columns and labels:
Assay type in all cases: in vivo
[1] = system: C. neoformans strain H99; assay: Trial 3: survival of C. neoformans-infected mice
Experimental: (§1) Animals were dosed once or twice daily as stated in Table 3 following daily body weight measurements. 5 mice were used per treatment group and a group of 5 infected, untreated mice was used as a control. […] Fluconazole, where indicated, was dosed either alone or in combination at 25 mg/kg/day in two doses by oral gavage. Agent administration began 72 hours following infection and continued once daily for 28 consecutive days.
Survival and brain studies for each of the three trials were used to determine antifungal efficacy. Mortality was recorded throughout each of the three trials. The animals were necropsied at death and the brain was removed aseptically, weighed, and homogenized in 1 milliliter sterile water. The microbiological response to antifungal treatment was evaluated by concentration (in CFU per gram) of C. neoformans in brain tissue. Serial dilutions using sterile PBS of homogenized brain were plated in duplicate onto YPD agar plates. Culture plates were incubated at 37° C. for 48 hours, after which the CFU were counted and the number of CFU per gram of brain tissue was calculated. The method was sensitive for detection of >10 CFU/g. The culture-negative plates were counted as having 0 CFU/g.

[2] = system: C. neoformans strain H99; assay: Trial 2: survival of C. neoformans-infected mice; settings: oral 250 mg/kg/day in drinking water
Experimental: Mice were inoculated with C. neoformans, strain H99/ATCC 208821, (American Type Culture Collection, Rockville, Md.), which was prepared as follows. Cells from a C. neoformans suspension were streaked onto yeast extract peptone dextrose (YPD) agar plates, which were then incubated at 37° C. for 48 hours. A well-separated colony was resuspended in 25 milliliters YPD broth containing chloramphenicol and incubated in a flask on a shaking incubator at 37° C. overnight. The cells were recovered by centrifugation at 4,000 rpm for 5 minutes and washed two times in phosphate-buffered saline (PBS) by resuspension and centrifugation. Challenge organisms were quantified by hemocytometry and were diluted with PBS to a final concentration of 10^5 organisms per milliliter. The viable count was confirmed by serially diluting the C. neoformans suspension and plating the inoculum onto YPD agar plates. […]
Survival and brain studies for each of the three trials were used to determine antifungal efficacy. Mortality was recorded throughout each of the three trials. […] The microbiological response to antifungal treatment was evaluated by concentration (in CFU per gram) of C. neoformans in brain tissue. […] Culture plates were incubated at 37° C. for 48 hours, after which the CFU were counted and the number of CFU per gram of brain tissue was calculated. […] The culture-negative plates were counted as having 0 CFU/g. […]

[3] = system: C. neoformans strain H99; assay: Trial 3: CFU per gram of brain tissue at death; settings: PO BID 25 mg/kg/day, individual mice 1-5
Experimental: as §1
Survival and brain studies for each of the three trials were used to determine antifungal efficacy. Mortality was recorded throughout each of the three trials. The animals were necropsied at death and the brain was removed aseptically, weighed, and homogenized in 1 milliliter sterile water. The microbiological response to antifungal treatment was evaluated by concentration (in CFU per gram) of C. neoformans in brain tissue. Serial dilutions using sterile PBS of homogenized brain were plated in duplicate onto YPD agar plates. Culture plates were incubated at 37° C. for 48 hours, after which the CFU were counted and the number of CFU per gram of brain tissue was calculated. The method was sensitive for detection of >10 CFU/g. The culture-negative plates were counted as having 0 CFU/g. […]

Row | SMILES | Median survival ([1]; oral 250 mg/kg/day in water) [days] | Median survival [2] [days] | Number of CFU/g of Brain [3] | Median survival ([1]; PO BID 25 mg/kg/day) [days]
1 | Nc1[nH]c(=O)ncc1F [5-Flucytosine] | 47 | 34 | – | –
2 | OC(Cn1cncn1)(Cn1cncn1)c1ccc(F)cc1F [Fluconazole] | – | – | 4,200,000 CFU/g and 4,300,000 CFU/g and 3,900,000 CFU/g and 6,800,000 CFU/g and 11,300,000 CFU/g | 53
